The results in this text go back to ChEMBL document CHEMBL4765465, “Photoactive Bifunctional Degraders: Precision Tools To Regulate Protein Stability” (J Med Chem, 2020).

Where only a bound is given, the exact number is not on record here.

Data set [1] in a line: Half life of compound by UV-Visible spectrophotometric method. It is filed as physicochemical.
Another data set relates to CWR22R. Put plainly: Growth inhibition of human 22Rv1 cells preincubated for 15 mins followed by UV irradiation and measured after 72 hrs by Celltiter-Glo assay. It is filed as functional. The settings on record: time 72.25 hrs. Background: In ATP-based viability assays light output follows the ATP content of the culture.

For orientation: half-life means how long it takes for the measured level to halve. Low readings indicate rapid decline, high ones slow decline. The compound `COc1cc(COC(=O)N2C(=O)CCC(N3C(=O)c4cccc(OCC(=O)NCCCCNC(=O)C[C@@H]5N=C(c6ccc(Cl)cc6)c6c(sc(C)c6C)-n6c(C)nnc65)c4C3=O)C2=O)c([N+](=O)[O-])cc1OC` (some centres not stated) returned a half-life in data set [1] of 58 min. As for `Cc1sc2c(c1C)C(c1ccc(Cl)cc1)=N[C@@H](CC(=O)NCCOCCOCCNC(=O)COc1cccc3c1C(=O)N(C1CCC(=O)N(COC(C)c4cc5c(cc4[N+](=O)[O-])OCO5)C1=O)C3=O)c1nnc(C)n1-2` (some centres not stated), the “growth inhibition (GI)” value in the data set on CWR22R was “<=39%”.
